Data on 13 molecules can be found in ChEMBL document CHEMBL4387767, “Synthesis of carbazoloquinone derivatives and their antileukemic activity via modulating cellular reactive oxygen species” (Bioorg Med Chem Lett, 2019).

Activity calls are given as the source filed them. The calls are words filed in the database; no cut-off is given here.

For experiment [1], the system named is HL-60. The experiment in a line: Cytotoxicity against human HL60 cells assessed as reduction in cell viability measured after 48 hrs by CCK8 assay. Type of experiment: functional, cell-based. Particulars: HL-60, 48 h. (In general: Tetrazolium dyes change colour on reduction, which living cells bring about.)
For experiment [2], the system named is HL-60. The experiment in a line: Cytotoxicity against human HL60 cells assessed as cell viability at 10 uM measured after 48 hrs by CCK8 assay relative to control. Type of experiment: functional. Particulars: HL-60, 48 h, read-out: Activity.
Experiment [3] has as its system HL-60. The experiment in a line: Induction of apoptosis in human HL60 cells assessed as chromatin condensation at 1 uM measured after 24 hrs by Hoechst 33342 staining based fluorescence microscopic method. The experiment is classed as functional, cell-based.
In experiment [4] the test system is HL-60. The experiment in a line: Induction of reactive oxygen species generation in human HL60 cells assessed as increase in extracellular ROS level at 1 uM measured after 2 hrs by NBT dye-based assay. Type of experiment: functional, cell-based.
In experiment [5] the test system is HL-60. The experiment in a line: Induction of apoptosis in human HL60 cells assessed as chromatin fragmentation at 1 uM measured after 24 hrs by Hoechst 33342 staining based fluorescence microscopic method. Type of experiment: functional, cell-based.
In experiment [6] the test system is HL-60. The experiment in a line: Induction of apoptosis in human HL60 cells assessed as chromatin crenation at 1 uM measured after 24 hrs by Hoechst 33342 staining based fluorescence microscopic method. The experiment is classed as functional, cell-based.
Experiment [7] relates to HL-60. The experiment in a line: Induction of reactive oxygen species generation in human HL60 cells assessed as increase in intracellular ROS level at 1 uM measured after 2 hrs by NBT dye-based assay relative to control. The experiment is classed as functional.

The term IC50 denotes the concentration needed to halve the response being measured. For the molecule `O=C1c2ccccc2C(=O)c2c1sc1ccccc21`, in the experiment on HL-60 [1] (read-out: IC50), the 50% inhibitory concentration (IC50) was over 50000 nM.
Take `COc1cc2[nH]c3c(c2cc1OC)C(=O)C(C)=CC3=O`: in the experiment on HL-60 [1] (read-out: IC50), the half-maximal inhibitory concentration (IC50) was 550 nM. Moreover, the viability at 10 µM in the experiment on HL-60 [2] is under 20%.
The matching figures for `COc1ccc2c3c([nH]c2c1)C(=O)C=C(C)C3=O`: 1210 nM and under 20%.
`CC1=CC(=O)c2[nH]c3ccccc3c2C1=O` [MURRAYAQUINONE A]: the outcome in the experiment with HL-60 [3], with HL-60 [4], in the experiment with HL-60 [5] and with HL-60 [6] was Active. Further, the half-maximal inhibitory concentration (IC50) with HL-60 [1] (read-out: IC50) was determined as 730 nM. The “fold change (FC)” value with HL-60 [7] is listed as 2.3 - 2.4. In addition, the viability at 10 µM in the experiment with HL-60 [2] was under 20%.
As to `CC1=CC(=O)c2[nH]c3ccc(Cl)cc3c2C1=O`, the IC50 with HL-60 [1] (read-out: IC50) came out at 240 nM. Besides, the viability at 10 µM in the experiment with HL-60 [2] is under 20%.
The matching figures for `COc1ccc2[nH]c3c(c2c1)C(=O)C(C)=CC3=O`: 3110 nM and under 20%.
As for `O=c1[nH]cc(F)c(=O)[nH]1` [FLUOROURACIL], the IC50 with HL-60 [1] was 42800 nM.
Regarding `CC1=CC(=O)c2[nH]c3ccc(C(F)(F)F)cc3c2C1=O`, in the experiment on HL-60 [1] (read-out: IC50), the concentration for half-maximal inhibition (IC50) was determined as 590 nM. In addition, in the experiment with HL-60 [2], the viability at 10 µM is under 20%.
Consider `CC1=CC(=O)c2c([nH]c3ccccc23)C1=O`, for which the half-maximal inhibitory concentration (IC50) in the experiment with HL-60 [1] (read-out: IC50) came out at 290 nM. For the same molecule, in the experiment with HL-60 [2], the viability at 10 µM was under 20%.
Consider `O=C1c2ccccc2C(=O)c2c1[nH]c1ccccc21` [BENZOCARBAZOLEDIONE], for which the concentration for half-maximal inhibition (IC50) with HL-60 [1] (read-out: IC50) was over 50000 nM. For the same molecule, in the experiment with HL-60 [7], the outcome was Active.
On to `COc1ccc2[nH]c3c(c2c1)C(=O)C=C(C)C3=O`, for which the IC50 in the experiment on HL-60 [1] (read-out: IC50) is 5060 nM. Besides, the viability at 10 µM with HL-60 [2] was under 20%.
For the molecule `O=C1c2ccccc2C(=O)c2c1[se]c1ccccc21`, the half-maximal inhibitory concentration (IC50) with HL-60 [1] (read-out: IC50) was over 50000 nM.
As to `O=C1c2ccccc2C(=O)c2c1oc1ccccc21`, the result in the experiment with HL-60 [3], with HL-60 [4], in the experiment on HL-60 [5] and with HL-60 [6] was Active. Besides, in the experiment on HL-60 [1] (read-out: IC50), the IC50 was determined as 410 nM. The “fold change (FC)” value with HL-60 [7] was 2.3 - 2.4.
